# Reference: patent US9708336B2, “Metallo-beta-lactamase inhibitors” (priority 2014, dated 2017)
# Read-outs that look alike come from different tables or passages of the source.
# Tests used:
# NDM-1 = NDM-1 (Klebsiella pneumoniae, UniProt C7C422); assay: biochemical; format: biochemical; conditions: read-out: NDM-1 IC50
# IMP-1 = IMP-1 (Serratia marcescens, UniProt P52699); assay: biochemical; format: biochemical; conditions: read-out: IMP-1 IC50
# VIM-1 = VIM-1 (Pseudomonas aeruginosa (strain ATCC 15692 / DSM 22644 / CIP 104116 / JCM 14847 / LMG 12228 / 1C / PRS 101 / PAO1), UniProt A0A0F7KYQ8); assay: Enzyme activity: determination of IC50, fluorescence assay with CCF2-FA substrate (VIM-1); format: biochemical
# [1] = tested on: Escherichia coli expressing NDM-1 (CLB30016); assay: Antibiotic potentiation activity: synergistic concentration (MITC95) with imipenem, OD600 growth; format: cell-based
# In short: (§1)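 Overnight colonies (35 °C) were suspended in saline, diluted 1:100 into 1.1× CAMHB, and exposed to test compound with imipenem at 4 μg/ml (optionally 1 μg/ml) in assay. After 22–24 h at 35 °C, growth was read by absorbance.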
# [2] = tested on: Klebsiella pneumoniae expressing VIM-1 (IHMA599644); assay: as above; format: cell-based
# In short: as §1
# [3] = tested on: Serratia marcescens expressing IMP-1 (CL5741); assay: as above; format: cell-based
# In short: as §1
# [4] = fluorescence assay with CCF2-FA substrate
# [5] = fluorescence assay with CCF2-FA substrate, read-out: VIM-1 IC50
# [6] = concentration giving 95% inhibition of bacterial growth
# [7] = VIM-1 IC50, fluorescence assay with CCF2-FA substrate
# [8] = CLB30016 (NDM-1), 95% inhibition of bacterial growth
# [9] = IHMA599644 (VIM-1), 95% inhibition of bacterial growth
# [10] = CL5741 (IMP-1), 95% inhibition of bacterial growth
# [11] = NDM-1 enzyme, CCF2-FA fluorescence assay
# [12] = IMP-1 enzyme, CCF2-FA fluorescence assay
# [13] = VIM-1 enzyme, CCF2-FA fluorescence assay, read-out: VIM-1 IC50
# [14] = Escherichia coli expressing NDM-1 (CLB30016), 95% growth inhibition
# [15] = Klebsiella pneumoniae expressing VIM-1 (IHMA599644), 95% growth inhibition
# [16] = Serratia marcescens expressing IMP-1 (CL5741), 95% growth inhibition
# [17] = NDM-1 enzyme, CCF2-FA substrate
# [18] = IMP-1 enzyme, CCF2-FA substrate
# [19] = VIM-1 enzyme, CCF2-FA substrate, read-out: VIM-1 IC50
# [20] = (CLB30016, NDM-1), 95% growth inhibition
# [21] = Klebsiella pneumoniae IHMA599644 (VIM-1), 95% growth inhibition
# [22] = Serratia marcescens CL5741 (IMP-1), 95% growth inhibition
# Chain of NDM-1 (C7C422 whole entry, looked up, species assumed): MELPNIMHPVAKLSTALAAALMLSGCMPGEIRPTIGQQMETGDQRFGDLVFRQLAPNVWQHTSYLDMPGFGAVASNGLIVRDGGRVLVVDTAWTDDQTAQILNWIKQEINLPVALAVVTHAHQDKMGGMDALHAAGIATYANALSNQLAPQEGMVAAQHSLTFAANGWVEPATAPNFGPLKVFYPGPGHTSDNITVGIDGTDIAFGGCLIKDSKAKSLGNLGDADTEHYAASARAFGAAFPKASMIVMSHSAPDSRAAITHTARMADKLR
# Chain of IMP-1 (P52699 whole entry, looked up): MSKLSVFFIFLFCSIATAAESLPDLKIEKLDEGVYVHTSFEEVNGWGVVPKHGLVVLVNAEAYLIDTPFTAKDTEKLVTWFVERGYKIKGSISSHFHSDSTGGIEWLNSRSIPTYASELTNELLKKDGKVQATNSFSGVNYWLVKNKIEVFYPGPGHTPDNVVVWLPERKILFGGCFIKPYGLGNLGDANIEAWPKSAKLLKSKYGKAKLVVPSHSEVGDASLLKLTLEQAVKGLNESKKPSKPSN
Compound,IC50 (NDM-1; [11]) [nM],IC50 (IMP-1; [12]) [nM],IC50 (VIM-1; [13]) [nM],"Escherichia coli MITC95 [1, 14] [µM]","Klebsiella pneumoniae MITC95 [2, 15] [µM]","Serratia marcescens MITC95 [3, 16] [µM]",IC50 (NDM-1; [17]) [nM],IC50 (IMP-1; [18]) [nM],IC50 (VIM-1; [19]) [nM],"Escherichia coli MITC95 [1, 20] [µM]","Klebsiella pneumoniae MITC95 [2, 21] [µM]","Serratia marcescens MITC95 [3, 22] [µM]",other results
"NS(=O)(=O)c1nccc(N2CCC3(CC2)NCNC3=O)c1-c1nnn[nH]1 [Example 221, 4-(4-oxo-1,3,8-triazaspiro[4.5]dec-8-yl)-3-(1H-tetrazol-5-yl)pyridine-2-sulfonamide]",–,–,–,–,–,–,–,–,–,–,–,–,"IC50 (NDM-1; [4]): 251 nM; IC50 (IMP-1; [4]): 6170 nM; IC50 (VIM-1; [5]): 6170 nM; Escherichia coli expressing NDM-1 (CLB 30016) MITC95 [1, 6]: 4.688 µM; Klebsiella pneumoniae expressing VIM-1 (IHMA 599644) MITC95 [2, 6]: 200 µM; Serratia marcescens expressing IMP-1 (CL5741) MITC95 [3, 6]: 100 µM"
"NCCN[C@H]1CC[C@@H](c2ccc(C(F)(F)F)c(S(N)(=O)=O)c2-c2nnn[nH]2)CC1 [Example 828, 3-((1s,4s)-4-((2-aminoethyl)amino)cyclohexyl)-2-(1H-tetrazol-5-yl)-6-(trifluoromethyl)benzenesulfonamide]",–,–,–,–,–,–,–,–,–,–,–,–,"IC50 (NDM-1; [4]): 8.29 nM; IC50 (IMP-1; [4]): 72.9 nM; IC50 (VIM-1; [7]): 73.3 nM; Escherichia coli MITC95 [1, 8]: 0.7813 µM; Klebsiella pneumoniae MITC95 [2, 9]: 6.25 µM; Serratia marcescens MITC95 [3, 10]: 1.563 µM"
"CS(=O)(=O)Nc1ccc(-c2ccc(Br)c(S(N)(=O)=O)c2-c2nn[nH]n2)cc1 [Example 270, 4-bromo-4′-(methylsulfonamido)-2-(2H-tetrazol-5-yl)-[1,1′-biphenyl]-3-sulfonamide]",2.56,4.86,1.68,1.563,6.25,0.3906,–,–,–,–,–,–,–
"NS(=O)(=O)c1c(C(F)(F)F)ccc(-c2ccc(C3CCN(C4CNC4)CC3)cc2)c1-c1nnn[nH]1 [Example 796, 4′-(1-azetidin-3-ylpiperidin-4-yl)-2-(1H-tetrazol-5-yl)-4-(trifluoromethyl)biphenyl-3-sulfonamide]",–,–,–,–,–,–,–,–,–,–,–,–,"IC50 (NDM-1; [4]): 2.06 nM; IC50 (IMP-1; [4]): 0.345 nM; IC50 (VIM-1; [7]): 18 nM; Escherichia coli MITC95 [1, 8]: 6.25 µM; Klebsiella pneumoniae MITC95 [2, 9]: >200 µM; Serratia marcescens MITC95 [3, 10]: 6.25 µM"
"NC(=O)c1nccc2cc(-c3cccc(S(N)(=O)=O)c3-c3nn[nH]n3)ccc12 [Example 281, 6-(3-sulfamoyl-2-(2H-tetrazol-5-yl)phenyl)isoquinoline-1-carboxamide]",0.342,42.9,12.2,0.7813,12.5,3.125,–,–,–,–,–,–,–
"Nc1ccc(-c2ccc(CCC3CCNCC3)c(S(N)(=O)=O)c2-c2nnn[nH]2)cn1 [Example 581, 3-(6-aminopyridin-3-yl)-6-(2-(piperidin-4-yl)ethyl)-2-(1H-tetrazol-5-yl)benzenesulfonamide]",–,–,–,–,–,–,8.23,268,36.8,0.3906,12.5,6.25,–
"NS(=O)(=O)c1c(C(F)(F)F)ccc(-c2ccc(N3CCC(O)CC3)cc2)c1-c1nnn[nH]1 [Example 740, 4′-(4-hydroxypiperidin-1-yl)-2-(1H-tetrazol-5-yl)-4-(trifluoromethyl)biphenyl-3-sulfonamide]",–,–,–,–,–,–,0.229,0.456,1.15,6.25,50,6.25,–
"NS(=O)(=O)c1c(C(F)(F)F)ccc(-c2ccc(C3CCN(CC4CCCCN4)CC3)cc2)c1-c1nnn[nH]1 (stereo not drawn) [Example 676, 4′-[1-(piperidin-2-ylmethyl)piperidin-4-yl]-2-(1H-tetrazol-5-yl)-4-(trifluoromethyl)biphenyl-3-sulfonamide]",–,–,–,–,–,–,5.59,1.26,9.1,12.5,>200,6.25,–
"Cc1ccc(C(F)(F)F)c(S(N)(=O)=O)c1-c1nnn[nH]1 [Example 487, 3-methyl-2-(1H-tetrazol-5-yl)-6-(trifluoromethyl)benzenesulfonamide]",102,56.4,70.4,1.563,25,1.563,–,–,–,–,–,–,–
"NS(=O)(=O)c1c(C(F)(F)F)ccc([C@H]2CC[C@H](NC3CCCNCC3)CC2)c1-c1nnn[nH]1 (stereo partly drawn) [Example 695, 3-[4-(azepan-4-ylamino)cyclohexyl]-2-(1H-tetrazol-5-yl)-6-(trifluoromethyl)benzene sulfonamide]",–,–,–,–,–,–,13.6,42.3,13.2,0.7813,6.25,3.125,–
"NS(=O)(=O)c1cccc(-c2ccc(C3(O)CCNC3)cc2)c1-c1nn[nH]n1 (stereo not drawn) [Example 284, 4′-(3-hydroxypyrrolidin-3-yl)-2-(2H-tetrazol-5-yl)-[1,1′-biphenyl]-3-sulfonamide]",12.7,102,55.5,0.7813,4.688,1.563,–,–,–,–,–,–,–
"N#Cc1ccc2ncc(-c3cccc(S(N)(=O)=O)c3-c3nnn[nH]3)n2c1 [Example 648, 3-(6-cyanoimidazo[1,2-a]pyridin-3-yl)-2-(1H-tetrazol-5-yl)benzenesulfonamide]",–,–,–,–,–,–,5.11,95.7,15.3,1.563,12.5,6.25,–
"NS(=O)(=O)c1c(C(F)(F)F)ccc(N2CCN(CCO)CC2)c1-c1nnn[nH]1 [Example 759, 3-[4-(2-hydroxyethyl)piperazin-1-yl]-2-(1H-tetrazol-5-yl)-6-(trifluoromethyl) benzenesulfonamide]",–,–,–,–,–,–,–,–,–,–,–,–,"IC50 (NDM-1; [4]): 22.5 nM; IC50 (IMP-1; [4]): 40.9 nM; IC50 (VIM-1; [5]): 45.6 nM; Escherichia coli MITC95 [1, 8]: 3.125 µM; Klebsiella pneumoniae MITC95 [2, 9]: 12.5 µM; Serratia marcescens MITC95 [3, 10]: 3.125 µM"
"CN1CCC(NCc2ccc(-c3cccc(S(N)(=O)=O)c3-c3nnn[nH]3)cc2)C1 (stereo not drawn) [Example 332, 4′-(((1-methylpyrrolidin-3-yl)amino)methyl)-2-(1H-tetrazol-5-yl)-[1,1′-biphenyl]-3-sulfonamide]",11.5,192,554,0.5859,100,3.125,–,–,–,–,–,–,–
"Cc1cc(CNCc2ccc(-c3cccc(S(N)(=O)=O)c3-c3nnn[nH]3)cc2)n[nH]1 [Example 354, 4′-({[(5-methyl-1H-pyrazol-3-yl)methyl]amino}methyl)-2-(1H-tetrazol-5-yl)biphenyl-3-sulfonamide]",7.33,16.4,325,2.344,200,2.344,–,–,–,–,–,–,–
"CN(C)C1(C)CN(c2ccc(-c3cccc(S(N)(=O)=O)c3-c3nnn[nH]3)cn2)C1 [Example 625, 3-[6-[3-(dimethylamino)-3-methyl-azetidin-1-yl]-3-pyridyl]-2-(1H-tetrazol-5-yl)benzenesulfonamide]",–,–,–,–,–,–,37,203,1350,2.344,>200,12.5,–
